# Results taken from patent US8158340B2, “Methods for detecting conformational changes in bioentities” (Corning Incorporated, priority 2005, dated 2012).
# Where a name gives a salt, the structure may show the parent alone.
# B1: myoglobin: native horse myoglobin (protein, UniProt P68082 2-154, looked up)
# Myoglobin: GLSDGEWQQVLNVWGKVEADIAGHGQEVLIRLFTGHPETLEKFDKFKHLKTEAEMKASEDLKKHGTVVLTALGGILKKKGHHEAELKPLAQSHATKHKIPIKYLEFISDAIIHVLHSKHPGDFGADAQGAMTKALELFRNDIAAKYKELGFQG
# B2: apomyoglobin with heme: apomyoglobin after heme insertion with 2 μM hemin (protein, UniProt P68082 2-154, looked up)
# Myoglobin: B1 Myoglobin
# modifications: heme reconstituted
# notes: apomyoglobin after heme insertion with 2 μM hemin
# B3: apomyoglobin: horse apomyoglobin made by acid-acetone heme removal (protein, UniProt P68082 2-154, looked up)
# Myoglobin: B1 Myoglobin
# modifications: heme removed
# notes: horse apomyoglobin made by acid-acetone heme removal
# Key:
# H.S.A. [1] = biological target: T1, H.S.A. (Homo sapiens, UniProt P02768); experiment: Tryptic digestion of H.S.A. after chemical modification; assay type: biochemical; conditions: 5 minute treatment of 2,3-butanedione; FIG. 20
# T1 sequence (P02768 25-609): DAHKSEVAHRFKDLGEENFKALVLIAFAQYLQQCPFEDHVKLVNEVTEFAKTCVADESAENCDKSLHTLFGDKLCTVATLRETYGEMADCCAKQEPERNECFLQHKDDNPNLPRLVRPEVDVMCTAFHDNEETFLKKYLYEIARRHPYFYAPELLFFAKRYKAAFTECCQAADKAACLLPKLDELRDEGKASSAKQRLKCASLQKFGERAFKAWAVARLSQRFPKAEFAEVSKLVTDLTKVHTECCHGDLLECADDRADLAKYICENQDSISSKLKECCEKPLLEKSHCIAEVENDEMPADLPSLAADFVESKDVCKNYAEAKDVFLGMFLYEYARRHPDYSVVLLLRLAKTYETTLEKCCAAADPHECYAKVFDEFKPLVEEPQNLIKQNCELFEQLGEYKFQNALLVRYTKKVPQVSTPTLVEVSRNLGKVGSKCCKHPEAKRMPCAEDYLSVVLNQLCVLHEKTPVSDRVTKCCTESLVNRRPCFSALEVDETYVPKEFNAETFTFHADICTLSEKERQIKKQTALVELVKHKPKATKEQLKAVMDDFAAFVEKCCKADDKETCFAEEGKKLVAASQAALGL
# Text: In this type of assay, the digestion signal can be used as a means for screening large compound libraries for modulators of digestion (i.e. inhibitors or enhancers). The digestion inhibitors could be directed against-any lytic agent including but not limited to peptidases (as in the Caspase assay), proteases, nucleases, glucuronidase, glucosidase, lipases and the like. The assay is capable of detecting small molecule inhibitors of digestion of any molecular weight size. […] The extent to which an inhibitor can prevent digestion is assayed. […] The bar in FIG. 20, labeled 2,3-butanedione represents the net tryptic digestion of H.S.A. after a 5 minute treatment of 2,3-butanedione. The chemical 2,3-butanedione is an effective chemical modifier of amino acids such as lysine or arginine and is known in the art as an effective inhibitor of trypsin digestion via target modification.
# H.S.A. [2] = biological target: T1, H.S.A.; experiment: Percent crosslinking of H.S.A. with glutaraldehyde in presence of denaturants; assay type: biochemical; conditions: as the concentration of denaturing agent increased; FIGS. 7-10
# Protocol: The fractional amount of chemical crosslinking was measured by taking the ratio of added crosslinker attached to the protein relative to amount of initial protein on the sensor. Initially, protein is immobilized and washed on the Epic™ sensor and then measured for amount of immobilized protein. The protein is exposed to glutaraldehyde with a specified solution condition. The mass change that resulted from crosslinking is recorded again on the Epic™ system. The ratio of picometer change by crosslinker (due to mass increase) to mass of protein immobilized (as measured by initial change in picometer due to protein immobilization) is referred to as the fractional amount of crosslinking (% XL or % crosslinking), which is depicted in FIG. 6. This mass change by chemical crosslinking provides a “snap shot” of the conformational state accessible to cross linker.
# As a protein or bioentity is denatured it should unfold and thereby increase the number of available sites for crosslinking.
# Calmodulin (CAM) = biological target: T2, Calmodulin (CAM) (Homo sapiens, UniProt P0DP23); experiment: Surrogate binding: calcium additions to immobilized calmodulin on Epic biosensor; conditions: nine additions of 200 μM calcium chloride
# T2 construct: purchased Upstate cell signaling solutions 14-368
# Text: In this assay, the detection of macromolecular events whose mass changes are below detection due to sparingly low refractive index changes on a biosensor are consequentially assayed through surrogate associations that are then detectable by refractive index changes (i.e., any event (ion or not) which conveys a signature through association and is assayable on a biosensor).
# Calmodulin (CAM) is a classic calcium binding protein. It binds four calcium ions per protein. At saturation, four ligands at a mass of 40 Daltons equals 160 Dalton is produced. This mass is expected to be below normal direct bind detection. However, upon calcium binding CAM undergoes a dramatic conformational transition. The physical changes by CAM play a crucial role in the functioning of this molecule in vivo. Fluorescent probes that sense hydrophobic transitions have been used for more than a decade. […] Calmodulin was chosen as the model system for the concept of surrogate direct binding because the binding of calcium to this protein should not be readily detectable on a biosensor (4×40 Dalton for calcium=160 Da).
# CAM was ordered through Upstate cell signaling solutions (Cat #14-368). […] Yet, when a hydrophobic probe is employed (a surrogate direct bind probe), a calcium modulation interaction is detected.
# equine cytochrome C = equine cytochrome C (Equus caballus, UniProt P00004); experiment: Catalytic digestion: trypsin digestion of immobilized cytochrome C with degrading catalyst; assay type: biochemical; conditions: 15 units of trypsin per well, FIG. 2
# equine cytochrome C, sequence (P00004 whole entry): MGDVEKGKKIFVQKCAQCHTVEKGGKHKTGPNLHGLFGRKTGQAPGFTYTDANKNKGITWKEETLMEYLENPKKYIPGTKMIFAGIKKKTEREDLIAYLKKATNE
# Protocol: Chem. Soc., 2004, 126:12833-12842 and tested as a degrading catalyst. On the Epic™ System, equine cytochrome C was chemically immobilized onto the EMA surface. The comparative trypsin digestion on the Epic™ system was measured. […] In these assays, 15 units of trypsin were used in each well. No titration was done for the enzyme, the cytochrome protein or the copper II porphyrin.
# H.S.A. [3] = biological target: T1, H.S.A.; experiment: Conformational mode locking: trypsin digestion of H.S.A. after glutaraldehyde crosslinking; assay type: biochemical; conditions: 10% glutaraldehyde in 0.1 M phosphate pH 7
# Text: The use of covalent chemical crosslinking as a way of assaying conformational states or transitions of bioentities was investigated. H.S.A. was immobilized on an Epic™ sensor. The protein was crosslinked with glutaraldehyde under a variety of conditions (FIG. 5). Glutaraldehyde is a small molecular weight organic chemical (100 Dalton). It can undergo a variety of chemical crosslinking events with either itself or several amino acids. For this study, 10% glutaraldehyde in 0.1 M phosphate pH 7 was used. This was done to avoid the possibility of polymeric glut from forming. The amount of protein immobilized on the surface was also measured as well as the amount of chemical crosslinking and trypsin digestion. […] This effect was expected since crosslinking should affix the protein to the surface and render mass loss incapable. This finding should permit the ability to immobilize affinity capture molecules like antibodies and streptavidin and after crosslinking prevent their digestion. These crosslinked capture structures can then be used to specifically orient their antigens for antigen specific digestion.
# rabbit IgG = experiment: Trypsin digestion of rabbit IgG plus warfarin (specificity control); assay type: biochemical; conditions: generic protein control
# Text: (§1) The data indicates several properties.
# trypsin [4] = experiment: Trypsin digestion of standard fluorescent substrate BZIP plus warfarin (specificity control); assay type: biochemical
# Text: It is contemplated that any conformationally altered ligand-bioentity complex can be further confirmed or characterized through secondary analysis such as peptide digest mapping, deuterium exchange studies, Michaelis-Menten kinetic studies, circular dichroism, intrinsic fluorescence analysis, competition studies with fluorescence polarization assays and the like. In addition, the effects that a ligand or putative ligand may have on the digesting agent may be analyzed using a known non-binding agent or through kinetic analysis using fluorescent assays or absorbance assays. For example, rhodamine 110, bis-(CBZ-L-isoleucyl-L-prolyl-L-arginine amide), dihydrochloride (BZiPAR, Invitrogen Inc.) may be used in fluorescence assays with trypsin and a putative ligand. Similarly, Nα-benzoyl-L-arginine ethyl ester hydrochloride (BAEE) may also be used for spectrophotometric assays with trypsin and other proteases.
# as §1
# trypsin or chymotrypsin = experiment: Conformational assay: label-independent digestion of immobilized albumins; assay type: biochemical; conditions: relative to normal BSA; FIGS. 3 and 4
# Protocol: In this assay, it was determined whether or not a label-independent detection assay can distinguish between different albumins by digestion with either trypsin or chymotrypsin on the Epic™ system.
# trypsin [5] = experiment: Comparative trypsin digestion of myoglobin, apomyoglobin and heme-inserted apomyoglobin on Epic system; assay type: biochemical; conditions: approximately 23 minutes; for trypsin digestion (refractive index change): 15 units of trypsin in 1× PBS, FIGS. 18 and 19
# Protocol: The heme inserted wells as well as the apoprotein and myoglobin wells were digested using 15 units of trypsin in 1× PBS. The digestion process was allowed to proceed for approximately 23 minutes with continuous monitoring of refractive index changes on the LID system. The hierarchy of digestion followed the following order; myoglobin (−250 pm)<apomyoglobin with heme (−350 pm)<apomyoglobin (−500 pm) (FIGS. 18 and 19). […] The difference between the native myoglobin and the heme inserted apomyoglobin may be a result of slight denaturation effects that were introduced in the preparation of the apomyoglobin protein.
molecule,measurement,setting,value
"CC(=O)C(C)=O [2,3-butanedione]",net tryptic digestion of H.S.A. after chemical modification,H.S.A. [1],digestion is effected by chemical modification
[Cl-].[Cl-].[Mg+2] [MgCl],percent crosslinking of H.S.A. with glutaraldehyde,H.S.A. [2],increasing percent crosslinking
[Cl-].[Na+] [NaCl],percent crosslinking of H.S.A. with glutaraldehyde,H.S.A. [2],increasing percent crosslinking
NC(N)=O [Urea],percent crosslinking of H.S.A. with glutaraldehyde,H.S.A. [2],increasing percent crosslinking
[Ca+2].[Cl-].[Cl-] [calcium chloride],binding detection of calcium to CAM with surrogate probe,Calmodulin (CAM); 100 μM ANS hydrophobic probe present,binding event
same,direct bind detection of calcium to CAM,"Calmodulin (CAM); CAM in 1×PBS without probe, relative to blocked wells",no binding data
O=C(O)c1ccc(-c2c3nc(c(-c4ccc(C(=O)O)cc4)c4ccc([nH]4)c(-c4ccc(C(=O)O)cc4)c4nc(c(-c5ccc(C(=O)O)cc5)c5ccc2[nH]5)C=C4)C=C3)cc1.[Cu+2] [copper (II) tetra-(4-carboxyphenyl)porphyrin],trypsin digestion of cytochrome C with degrading catalyst,equine cytochrome C,significant enhancement of digestion
O=CCCCC=O [glutaraldehyde],proteolytic (trypsin) digestion of H.S.A. after chemical crosslinking,H.S.A. [3],dramatically inhibited/attenuated
N=C(N)N [guanidine HCL],percent crosslinking of H.S.A. with glutaraldehyde,H.S.A. [2],increasing percent crosslinking
CC(=O)CC(c1ccccc1)c1c(O)c2ccccc2oc1=O (centres unmarked) [warfarin],"reduction in trypsin digestion rate, rabbit IgG plus warfarin",rabbit IgG,no such reduction in digestion rate was observed
same,"reduction in trypsin digestion rate, BZIP plus warfarin",trypsin [4],no such reduction in digestion rate was observed
acetylated BSA: acetylated bovine serum albumin immobilized on the biosensor,digestion profile of immobilized albumin,trypsin or chymotrypsin,dramatic enhanced digestion profile
heme,reduction in digestion of apomyoglobin caused by heme insertion,trypsin [5]; 15 units of trypsin,140 picometer
methylated BSA: methylated bovine serum albumin immobilized on the biosensor,digestion profile of immobilized albumin,trypsin or chymotrypsin,dramatic reduction in digestion rates
B1,trypsin digestion (refractive index change),trypsin [5],−250 pm
B2,trypsin digestion (refractive index change),trypsin [5],−350 pm
B3,trypsin digestion (refractive index change),trypsin [5],−500 pm
